The nature of the data set: Viability of cultured chondrosarcoma cells (crystal violet nuclear staining, OD590). As to conditions: human, human chondrosarcoma cell line; crystal violet OD590 (FIG. 5); concentration not given; read-out: decrease in viable cell number. The data set is classed as cell-based. The procedure: Animal Cell Experiments. The effects of the MMP-2 propeptide on viability and metabolism of cultured animal cells was observed. A human chondrosarcoma cell line was cultured in both the presence and absence of 50 μg/ml recombinant MMP-2 propeptide (serum-free). Cultures were observed over a 48 hours period. Cell viability was monitored via crystal violet nuclear staining and absorption spectroscopy (OD590). Absorbance is proportional to cell number (Gillies, 1986, Anal. Biochem. 159:109-113). […] That MMP-2 had no effect on the cultured cancer cell line was not unexpected since the effects of angiogenesis inhibitors (such as angiostatin and endostatin) are believed to be restricted to […] endothelial cells.

As to `COc1cc2c(cc1O)CCN[C@]21CS[C@@H]2c3c(OC(C)=O)c(C)c4c(c3[C@H](COC1=O)N1[C@@H]2[C@H]2c3c(cc(C)c(OC)c3O)C[C@@H]([C@@H]1O)N2C)OCO4` [ET-743], the cytotoxicity at 48 h worked out at 50%.

The values above are taken from US20020151481A1, “MMP-2 propeptide for use as antiangiogenic or antitumor agent” (priority 2000, published 2002).
